# Data published in patent US9000175B2, “Bicyclic GPR119 modulators” (Lupin Limited, priority 2010, dated 2015).
# Values joined by “and” are separate entries in the source; they are usually repeats but may differ in a detail not shown here. Identical values can stand only once.
# Biological target: T1, human GPR119 (Homo sapiens, UniProt Q8TDV5)
# T1 construct: expressed in transfected cells
# T1 sequence (Q8TDV5 1-335): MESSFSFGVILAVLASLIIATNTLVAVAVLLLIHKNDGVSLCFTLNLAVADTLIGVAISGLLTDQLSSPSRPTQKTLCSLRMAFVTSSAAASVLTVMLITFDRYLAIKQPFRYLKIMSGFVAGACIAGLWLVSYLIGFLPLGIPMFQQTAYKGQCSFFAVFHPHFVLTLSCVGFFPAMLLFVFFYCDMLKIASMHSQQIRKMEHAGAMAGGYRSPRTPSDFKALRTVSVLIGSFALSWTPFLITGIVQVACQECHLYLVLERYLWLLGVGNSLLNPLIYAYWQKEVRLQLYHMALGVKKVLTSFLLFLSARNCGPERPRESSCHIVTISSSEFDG
# Assay: Cyclic AMP assay in stable cell line
# Type: cell-based
# Details: CHO-K1 cells stably transfected with human GPR119; cAMP levels (FRET, cAMP femto kit); 1 h at 37° C; read-out: EC50 Range
# Procedure: Cyclic AMP Assay in Stable Cell Line:
# Chinese Hamster Ovary (CHO-K1) cells were stably transfected with human GPR119 and were maintained in Ham's F-12 complete medium containing 10% heat inactivated FBS (Sigma, UK). The cells were maintained under a selection pressure with 500 μg/ml G418 (GENETICIN). Stable clones were analyzed for functional cAMP response to OEA (oleoylethanolamide).
# To estimate activation of GPR119 and induction of cAMP levels by GPR119 agonists, cells were serum starvation for 18-24 h, trypsinized and seeded in 96 well plates at a, density of 7500 cells/well. The cells were then treated with test compounds diluted in serum free Ham's F12 for 1 h at 37° C. The cAMP levels were measured by using the cAMP femto kit (CisBio) by following the manufacturer's instructions. Following treatment with a test compound, the cells were lysed and cAMP levels were estimated by adding D2-labelled cAMP and europium-cryptate conjugated anti-cAMP antibody. Close proximity of D2 and cryptate results in FRET and the subsequent fluorescence that is measured at 665 and 620 nm. The FRET response is calculated as the ratio of fluorescence at 665 to fluorescence at 620 nm. The unlabelled cAMP produced as a result of GPR119 activation/agonism competes with the D2-cAMP leading to a decrease in the FRET signal. Thus the FRET signal is inversely proportional to the amount of cAMP produced by the treated cells. In a separate set of wells, known concentrations of cAMP were added in order to get a standard linear curve for extrapolation of the cAMP values in the unknown/test samples. Fluorescence was measured on BMG Labtech PHERAstar machine.
# The concentration of compound required to stimulate a half-maximal response (EC50) was determined using the GraphPad Prism software.
# The compounds prepared were tested using the above assay procedure and the results obtained are given below.
row,Compound,EC50
1,"CC(C)OC(=O)N1CCC(Oc2ccc(-n3ccc4cc(C(=O)N5CCCC5)ccc43)nc2)CC1 [Example-70, Isopropyl 4-((6-(5-(pyrrolidine-1-carbonyl)-1H-indol-1-yl)pyridin-3-yl)oxy)piperidine-1-carboxylate]",50 to 250 nM
2,"CCc1cnc(N2CCC(Oc3ccc(-n4ccc5cc(C(=O)N6CCCC6)ccc54)nc3)CC2)nc1 [Example-71, (1-(5-((1-(5-Ethylpyrimidin-2-yl)piperidin-4-yl)oxy)pyridin-2-yl)-1H-indol-5-yl)(pyrrolidin-1-yl)methanone]",< 50 nM
3,"CC(C)NC(=O)c1ccc2c(ccn2-c2ccc(OC3CCN(C(=O)OC(C)C)CC3)cn2)c1 [Example-72, Isopropyl 4-((6-(5-(isopropylcarbamoyl)-1H-indol-1-yl)pyridin-3-yl)oxy) piperidine-1-carboxylate]",250 to 1000 nM and 50 to 250 nM
4,"CC(C)OC(=O)N1CCC(Oc2ccc(-n3ccc4cc(C(=O)N(C)C)ccc43)nc2)CC1 [Example-74, Isopropyl 4-((6-(5-(dimethylcarbamoyl)-1H-indol-1-yl)pyridin-3-yl)oxy) piperidine-1-carboxylate]",< 50 nM
5,"CC(C)(C)OC(=O)N1CCC(Oc2ccc(-n3ccc4cc(C(=O)NCCO)ccc43)nc2)CC1 [Example-76, tert-Butyl-4-((6-(5-((2-hydroxyethyl)carbamoyl)-1H-indol-1-yl)-pyridin-3-yl)oxy)piperidine-1-carboxylate]",50 to 250 nM
6,"CCc1cnc(N2CCC(Oc3ccc(-n4ccc5cc(C(=O)NCCO)ccc54)nc3)CC2)nc1 [Example-77, 1-(5-((1-(5-Ethylpyrimidin-2-yl)piperidin-4-yl)oxy)pyridin-2-yl)-N-(2-hydroxyethyl)-1H-indole-5-carboxamide]",< 50 nM
7,"CC(C)c1noc(CN2CCC(Oc3ccc(-n4ccc5cc(S(C)(=O)=O)ccc54)nc3)CC2)n1 [Example-80, 3-Isopropyl-5-((4-((6-(5-(methylsulfonyl)-1H-indol-1-yl)pyridin-3-yl)oxy)piperidin-1-yl)methyl)-1,2,4-oxadiazole]",< 50 nM
8,"CS(=O)(=O)c1ccc2c(ccn2-c2ccc(OC3CCN(Cc4ccc(F)cc4)CC3)cn2)c1 [Example-82, 1-(5-((1-(4-Fluorobenzyl)piperidin-4-yl)oxy)pyridin-2-yl)-5-(methylsulfonyl)-1H-indole]",50 to 250 nM
9,CC(C)c1noc(CN2CCC(Oc3ccc(-n4ccc5cc(C(=O)N(C)C)ccc54)nc3)CC2)n1 [Example-84],250 to 1000 nM
10,"CCc1cnc(N2CCC(Oc3ccc(-n4ccc5cc(C(=O)NCC(F)(F)F)ccc54)nc3)CC2)nc1 [Example-88, 1-(5-((1-(5-Ethylpyrimidin-2-yl)piperidin-4-yl)oxy)pyridin-2-yl)-N-(2,2,2-trifluoroethyl)-1H-indole-5-carboxamide]",250 to 1000 nM
11,"CC(C)(C)OC(=O)N1CCC(Oc2ccc(-n3ccc4cc(S(C)(=O)=O)cc(F)c43)nc2)CC1 [Example-91, tert-Butyl-4-((6-(7-fluoro-5-(methylsulfonyl)-1H-indol-1-yl)pyridin-3-yl)oxy)piperidine-1-carboxylate]",< 50 nM
12,"Cc1noc(N2CCC(Oc3ccc(-n4ccc5cc(S(C)(=O)=O)ccc54)nc3)CC2)n1 [Example-92, 3-Methyl-5-(4-((6-(5-(methylsulfonyl)-1H-indol-1-yl)pyridin-3-yl)oxy)piperidin-1-yl)-1,2,4-oxadiazole]",50 to 250 nM
13,"CC(C)(C)OC(=O)N1CCC(Oc2ccc(-n3ccc4cc(CO)ccc43)nc2)CC1 [Example-94, tert-Butyl-4-((6-(5-(hydroxymethyl)-1H-indol-1-yl)pyridin-3-yl)oxy)piperidine-1-carboxylate]",250 to 1000 nM
14,"CCc1cnc(N2CCC(Oc3ccc(-n4ccc5cc(CNC(=O)C(C)C)ccc54)nc3)CC2)nc1 [Example-98, N-((1-(5-((1-(5-Ethylpyrimidin-2-yl)piperidin-4-yl)oxy)pyridin-2-yl)-1H-indol-5-yl)methyl)isobutyramide]",< 50 nM
15,"CC(C)c1noc(-c2ccc3c(ccn3-c3ccc(OC4CCN(C(=O)OC(C)(C)C)CC4)cn3)c2)n1 [Example-99, tert-Butyl-4-((6-(5-(3-isopropyl-1,2,4-oxadiazol-5-yl)-1H-indol-1-yl)pyridin-3-yl)oxy)piperidine-1-carboxylate]",250 to 1000 nM
16,"CCc1cnc(N2CCC(Oc3ccc(-n4ccc5cc(-c6nc(C(C)C)no6)ccc54)nc3)CC2)nc1 [Example-100, 5-(1-(5-((1-(5-Ethylpyrimidin-2-yl)piperidin-4-yl)oxy)pyridin-2-yl)-1H-indol-5-yl)-3-isopropyl-1,2,4-oxadiazole]",250 to 1000 nM
17,"CCc1cnc(N2CCC(Oc3ccc(-n4ccc5cc(-c6nc(C)no6)ccc54)nc3)CC2)nc1 [Example-103, 5-(1-(5-((1-(5-Ethylpyrimidin-2-yl)piperidin-4-yl)oxy)pyridin-2-yl)-1H-indol-5-yl)-3-methyl-1,2,4-oxadiazole]",50 to 250 nM
18,"CCOC(=O)N1CCC(OCc2ccc(-n3ccc4cc(S(C)(=O)=O)ccc43)nc2)CC1 [Example-107, Ethyl 4-((6-(5-(methylsulfonyl)-1H-indol-1-yl)pyridin-3-yl)methoxy) piperidine-1-carboxylate]",250 to 1000 nM
19,"CC(C)OC(=O)N1CCC(OCc2ccc(-n3ccc4cc(S(C)(=O)=O)ccc43)nc2)CC1 [Example-108, Isopropyl 4-((6-(5-(methylsulfonyl)-1H-indol-1-yl)pyridin-3-yl)methoxy)piperidine-1-carboxylate]",50 to 250 nM
20,"Cc1noc(N2CCC(OCc3ccc(-n4ccc5cc(S(C)(=O)=O)ccc54)nc3)CC2)n1 [Example-112, 3-Methyl-5-(4-((6-(5-(methylsulfonyl)-1H-indol-1-yl)pyridin-3-yl)methoxy)piperidin-1-yl)-1,2,4-oxadiazole]",250 to 1000 nM
21,"CCc1cnc(N2CCC(OCc3ccc(N4CCc5cc(S(C)(=O)=O)ccc54)nc3)CC2)nc1 [Example-113, 1-(5-(((1-(5-Ethylpyrimidin-2-yl)piperidin-4-yl)oxy)methyl)pyridin-2-yl)-5-(methylsulfonyl)indoline]",250 to 1000 nM
22,"CCc1cnc(N2CCC(Oc3ccc(-n4ccc5cc(NC(=O)C(C)(C)C)ccc54)nc3)CC2)nc1 [Example-118, N-(1-(5-((1-(5-Ethylpyrimidin-2-yl)piperidin-4-yl)oxy)pyridin-2-yl)-1H-indol-5-yl)pivalamide]",< 50 nM
23,"CCc1cnc(N2CCC(Nc3ccc(-n4ccc5cc(S(C)(=O)=O)ccc54)nc3)CC2)nc1 [Example-119, N-(1-(5-Ethylpyrimidin-2-yl)piperidin-4-yl)-6-(5-(methylsulfonyl)-1H-indol-1-yl)pyridin-3-amine]",50 to 250 nM
24,"CC(C)c1noc(N2CCC(Nc3ccc(-n4ccc5cc(S(C)(=O)=O)ccc54)nc3)CC2)n1 [Example-120, N-(1-(3-Isopropyl-1,2,4-oxadiazol-5-yl)piperidin-4-yl)-6-(5-(methylsulfonyl)-1H-indol-1-yl)pyridin-3-amine]",< 50 nM
25,"CCc1cnc(N2CCC(Oc3ccc(-n4ccc5cc(NC(=O)C(C)C)ccc54)nc3)CC2)nc1 [Example-123, N-(1-(5-((1-(5-Ethylpyrimidin-2-yl)piperidin-4-yl)oxy)pyridin-2-yl)-1H-indol-5-yl)isobutyramide]",< 50 nM
26,"CC(C)OC(=O)N1CCC(COc2ccc(-n3ccc4cc(NC(=O)C(C)C)ccc43)nc2)CC1 [Example-126, Isopropyl 4-(((6-(5-isobutyramido-1H-indol-1-yl)pyridin-3-yl)oxy)methyl)piperidine-1-carboxylate]",< 50 nM and 50 to 250 nM
27,"CC(C)C(=O)Nc1ccc2c(ccn2-c2ccc(OC3CCN(C(=O)C(C)C)CC3)cn2)c1 [Example-127, N-(1-(5-((1-Isobutyrylpiperidin-4-yl)oxy)pyridin-2-yl)-1H-indol-5-yl) isobutyramide]",< 50 nM
28,"CCc1cnc(N2CCC(Oc3ccc(-n4ccc5cc(NC(=O)OC(C)C)ccc54)nc3)CC2)nc1 [Example-132, Isopropyl(1-(5-((1-(5-ethylpyrimidin-2-yl)piperidin-4-yl)oxy)pyridin-2-yl)-1H-indol-5-yl)carbamate]",< 50 nM
29,"CC(C)NC(=O)c1ccc2c(c1)CCN2c1ccc(OC2CCN(C(=O)OC(C)(C)C)CC2)cn1 [Example-136, tert-Butyl-4-((6-(5-(isopropylcarbamoyl)indolin-1-yl)pyridin-3-yl)-oxy) piperidine-1-carboxylate]",< 50 nM
